Patent US20230210816A1 (priority 2020, published 2023)
pIC50: −log10 of the molar value. Like-named read-outs stand apart in the source and are kept apart here.

Key:
PICV-GFP = experiment: microbe, parasite or virus in culture; format: cell-based; conditions: Pichinde virus, Vero C1008, 48 h
LASV Josiah = experiment: microbe, parasite or virus in culture; format: cell-based, Lassa virus; conditions: Mammarenavirus lassaense, Vero C1008
[1] = tested on: MLV pseudovirus bearing MARV Musoke glycoprotein; experiment: microbe, parasite or virus in culture; format: cell-based
[2] = tested on: MLV pseudovirus bearing LCMV glycoprotein; experiment: microbe, parasite or virus in culture; format: cell-based; conditions: Vero, 24 h
[3] = tested on: MLV pseudovirus bearing MARV Angola glycoprotein; experiment: microbe, parasite or virus in culture; format: cell-based
[4] = tested on: MLV pseudovirus bearing PICV WT glycoprotein; experiment: microbe, parasite or virus in culture; format: cell-based; conditions: Vero, 24 h
[5] = tested on: MLV pseudovirus bearing JUNV glycoprotein; experiment: microbe, parasite or virus in culture; format: cell-based; conditions: Vero, 24 h
arenaviruses = experiment: organism not typed; format: cell-based; conditions: read-out: in vitro IC50
[6] = human, in vivo, cited from earlier work
EBOV and MARV = experiment: microbe, parasite or virus in culture; format: cell-based; conditions: Zaire ebolavirus, read-out: in vitro IC50
[7] = tested on: LASV and JUNV pseudoviruses; experiment: organism not typed; format: cell-based

Row | SMILES | pIC50 (PICV-GFP) | pIC50 (LASV Josiah) | pIC50 [1] | pIC50 [2] | pIC50 [3] | pIC50 [4] | pIC50 [5] | pIC50 (arenaviruses) | Cmax ([6]; po) [nM] | Cmax [6] [nM] | pIC50 (EBOV and MARV) | fold reduction of IC50 of arbidol by combination [7] | pIC50 ([7]; read-out: IC50 of arbidol in combination)
1 | CCN(CC)Cc1cc(Nc2ccnc3cc(Cl)ccc23)ccc1O [amodiaquine] | 5.35 |  |  |  |  |  |  |  |  |  |  |  | 
2 | CCOC(=O)c1c(CSc2ccccc2)n(C)c2cc(Br)c(O)c(CN(C)C)c12 [arbidol] | 5.08 | 5.00 | 5.46 | 5.13 | 5.41 | 5.13 | 5.19 | 5.00 to 5.22 | 900 to 1500 | 4000 | 5.41 to 5.57 | about 2 fold | 5.40 to 5.52
3 | O=C(Nc1ccc([N+](=O)[O-])cc1Cl)c1cc(Cl)ccc1O [niclosamide] | > 6.70 | 6.70 |  |  |  |  |  |  |  |  |  |  | 
